Laboratory results as given in US20250115669A1, “FGFR1/KLB Targeting Agonistic Antigen-Binding Proteins and Conjugates Thereof with GLP-1R Agonistic Peptides” (SANOFI, priority 2020, published 2025).
Blank lines part the entries; values can stand above or below the compound they belong to. Peptide text beside a SMILES is read from it.

Assays:
[1] = biological target: T1, human GIP receptor (Homo sapiens, UniProt P48546); test: HTRF cAMP assay in HEK-293 cells expressing human GIP receptor; format: cell-based; settings: HEK-293 cells; read-out: HTRF cAMP EC50 Human GIPR
T1 construct: expressed in transfected cells; host or cells: PSC-HEK-293
T1 sequence (P48546 22-466): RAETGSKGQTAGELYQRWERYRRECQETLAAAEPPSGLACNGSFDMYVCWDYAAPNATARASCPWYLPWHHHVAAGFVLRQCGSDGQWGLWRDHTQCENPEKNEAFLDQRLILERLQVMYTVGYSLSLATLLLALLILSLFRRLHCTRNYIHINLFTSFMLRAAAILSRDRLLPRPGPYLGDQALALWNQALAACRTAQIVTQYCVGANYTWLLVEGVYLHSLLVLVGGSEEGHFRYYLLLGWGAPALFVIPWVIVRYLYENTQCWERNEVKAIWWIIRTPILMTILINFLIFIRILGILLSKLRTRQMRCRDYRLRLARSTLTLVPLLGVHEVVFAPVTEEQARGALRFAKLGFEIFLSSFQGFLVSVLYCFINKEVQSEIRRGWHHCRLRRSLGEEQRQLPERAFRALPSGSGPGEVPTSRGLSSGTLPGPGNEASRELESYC
Description: (§1) Each vial contained 1.8 ml cells. The vials were slowly frozen to −80° C. in isopropanol, and then transferred in liquid nitrogen for storage.
(§2) Cells were resuspended in assay buffer (cell buffer plus 2 mM IBMX) and adjusted to a cell density of 1 million cells/ml.
(§3) For measurement of cAMP generation, 5 μl cells (final 5000 cells/well) and 5 μl of test compound were added to a 384-well plate, followed by incubation for 30 min at room temperature.
(§4) The cAMP generated was determined using a kit from Cisbio Corp. based on HTRF (Homogenous Time Resolved Fluorescence). The cAMP assay was performed according to manufacturer's instructions (Cisbio).

[2] = biological target: T2, human glucagon (GCG) receptor (Homo sapiens, UniProt P47871); test: HTRF cAMP assay in HEK-293 cells expressing human glucagon receptor; format: cell-based; settings: HEK-293 cells; read-out: HTRF cAMP EC50 Human GCGR
T2 construct: expressed in transfected cells; host or cells: PSC-HEK-293
Description: as §1, §2, §3, §4

[3] = biological target: T3, human beta-Klotho (Homo sapiens, UniProt Q86Z14); test: SPR off-rate screening of antibody mutants (human beta-Klotho captured by anti-His antibody); format: binding; settings: mean, n=3
T3 sequence (Q86Z14 1-1044): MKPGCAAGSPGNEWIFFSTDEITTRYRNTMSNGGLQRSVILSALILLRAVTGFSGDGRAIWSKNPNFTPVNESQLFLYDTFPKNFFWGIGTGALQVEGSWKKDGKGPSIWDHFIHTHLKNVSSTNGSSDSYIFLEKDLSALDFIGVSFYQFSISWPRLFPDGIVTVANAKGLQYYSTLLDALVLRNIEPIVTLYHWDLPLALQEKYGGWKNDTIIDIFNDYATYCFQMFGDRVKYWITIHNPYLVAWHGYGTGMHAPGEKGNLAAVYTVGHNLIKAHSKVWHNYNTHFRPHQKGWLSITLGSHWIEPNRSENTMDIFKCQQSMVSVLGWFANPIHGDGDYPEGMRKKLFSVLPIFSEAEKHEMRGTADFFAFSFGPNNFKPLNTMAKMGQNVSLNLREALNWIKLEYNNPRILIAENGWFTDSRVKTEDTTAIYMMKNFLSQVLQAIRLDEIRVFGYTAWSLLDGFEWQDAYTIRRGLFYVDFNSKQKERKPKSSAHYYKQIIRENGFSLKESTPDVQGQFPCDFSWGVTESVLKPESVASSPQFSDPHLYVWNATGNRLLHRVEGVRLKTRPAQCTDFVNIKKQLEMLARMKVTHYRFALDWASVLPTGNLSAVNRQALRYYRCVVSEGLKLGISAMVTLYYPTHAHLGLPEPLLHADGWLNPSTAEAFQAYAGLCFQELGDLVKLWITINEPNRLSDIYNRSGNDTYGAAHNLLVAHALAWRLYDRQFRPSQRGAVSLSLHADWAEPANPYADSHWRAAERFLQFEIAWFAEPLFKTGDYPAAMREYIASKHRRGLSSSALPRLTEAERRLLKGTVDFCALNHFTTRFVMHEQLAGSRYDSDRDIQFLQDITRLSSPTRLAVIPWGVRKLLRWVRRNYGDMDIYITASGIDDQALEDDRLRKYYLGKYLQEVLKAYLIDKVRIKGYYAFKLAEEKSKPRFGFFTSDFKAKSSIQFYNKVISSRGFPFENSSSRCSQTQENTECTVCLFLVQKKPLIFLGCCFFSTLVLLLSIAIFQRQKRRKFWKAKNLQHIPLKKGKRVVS
Description: Screening of antibody mutants for binding to human beta-Klotho was determined in a different SPR assay set up. Human beta-Klotho was affinity captured by an anti-His antibody (from His capture kit, GE Healthcare) that was immobilized to a series S CM5 chip (GE Healthcare) by amine reactive coupling as described above. The antibody samples were used as analytes at 50 nmol/L concentration. Association time was 240 sec and dissociation time was 300 sec. Chip surfaces were regenerated using the regeneration solution supplied with the His capture kit. The off-rates (kd) were determined using single exponential fitting in the Biacore 8K Evaluation Software version 1.1.1.7442 (GE Healthcare).

[4] = SAR16 (16H7) standalone and in combination with dulaglutide in DIO NASH cynomolgus monkeys; format: in vivo, Cynomolgus monkey (Macaca fascicularis)
Description: Both were tested as single administration and in combination of both in the most relevant animal model that reflects the intended human population. Thus, the pharmacokinetic and pharmacodynamics of varying doses of the compounds were explored in the high-fat diet-induced obese and insulin resistance cynomolgus monkey model with diagnosed non-alcoholic steatohepatitis (NASH), mimicking the adult human NASH insulin resistance phenotype.
Cynomolgus monkey (Macaca fascicularis) was selected as the test species of choice for more meaningful results that were translatable to humans. More than 50 male monkeys were trained to identify 40 HFD induced obese NASH monkeys for the study.
There was a run-in period during which monkeys were injected subcutaneously with vehicle every third day. Food intake (calculated as TEI) and water intake were measured daily along with twice-weekly body weight evaluation and baseline value determination for metabolic biomarkers, safety biomarkers, IV glucose tolerance test (IVGTT), liver biopsy for gene expression analysis, and profile for glucose, insulin, and plasma lipids.
For the dosing period 40 trained monkeys (n=10 per group) were selected and stratified for body weight, fasting plasma glucose (FPG), and fasting plasma insulin (FPI) and insulin response from baseline during the IVGTT. All treatments were administered subcutaneously for […]. The dosing period was designed as a four-arm, dose-ramping study, and monkeys were treated with either vehicle, SAR10, SAR16, or a combination of both SAR10 and SAR16.
(§5) The SAR10-treated monkeys were dosed every 3rd day at 60 μg/kg initiated by dose ramping (3 dose steps, week 1: 20 μg/kg, week 2: 40 μg/kg, week 3 to runout: 60 μg/kg). The SAR16-treated monkeys were dosed at 1 mg/kg on day +1, 3 mg/kg on day +16, and then repeat maintenance dose of 3 mg/kg on day +46. The Combo-treated monkey were dosed with both SAR10 and SAR16 as the same pattern of the SAR10 and SAR16 treated monkeys.
Other parameters were also measured during the study, including food intake, body fat, plasma ketone bodies, as well as blood glucose control (glucose profile, fed, fasting plasma glucose and during ivGTT). One group received the vehicle. The compounds were administered subcutaneously (SC) (12 weeks “evaluation phase” plus run-out) to obese and NASH male cynomolgus macaques (Macaca fascicularis).
as §5, with “at” for “as”

[5] = compared to the vehicle treated group
[6] = day +76 compared to baseline (day −27)

T2 sequence (P47871 26-477): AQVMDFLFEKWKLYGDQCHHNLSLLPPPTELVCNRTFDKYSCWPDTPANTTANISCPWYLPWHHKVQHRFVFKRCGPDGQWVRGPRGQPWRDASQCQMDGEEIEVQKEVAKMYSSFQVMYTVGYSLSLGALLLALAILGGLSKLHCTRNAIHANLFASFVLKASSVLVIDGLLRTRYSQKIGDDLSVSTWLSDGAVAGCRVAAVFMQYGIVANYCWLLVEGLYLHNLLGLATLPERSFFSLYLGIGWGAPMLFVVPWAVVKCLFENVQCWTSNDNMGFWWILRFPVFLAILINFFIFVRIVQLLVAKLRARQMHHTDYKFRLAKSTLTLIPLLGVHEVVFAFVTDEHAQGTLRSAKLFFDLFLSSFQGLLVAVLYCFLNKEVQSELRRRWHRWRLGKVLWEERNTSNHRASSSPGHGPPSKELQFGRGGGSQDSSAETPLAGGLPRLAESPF

EC50 [1]: 225 pM
EC50 [2]: > 10000 pM
Compound: CC[C@H](C)[C@H](NC(=O)[C@H](CC(C)C)NC(=O)[C@H](Cc1c[nH]c2ccccc12)NC(=O)[C@H](CCC(=O)O)NC(=O)[C@@H](NC(=O)[C@H](Cc1ccccc1)NC(=O)[C@H](CCC(=O)O)NC(=O)[C@H](Cc1c[nH]cn1)NC(=O)[C@@H](NC(=O)[C@H](C)NC(=O)[C@H](CCCNC(=N)N)NC(=O)[C@H](CCCCN)NC(=O)[C@H](CCC(=O)O)NC(=O)[C@H](CC(C)C)NC(=O)[C@H](CC(C)C)NC(=O)[C@H](CCCCN)NC(=O)[C@H](CO)NC(=O)[C@H](CC(C)C)NC(=O)[C@H](CC(=O)O)NC(=O)[C@H](CO)NC(=O)[C@@H](NC(=O)[C@H](Cc1ccccc1)NC(=O)[C@@H](NC(=O)CNC(=O)[C@H](CCC(=O)O)NC(=O)CNC(=O)[C@@H](N)Cc1c[nH]cn1)[C@@H](C)O)[C@@H](C)O)C(C)C)[C@@H](C)CC)C(=O)N[C@@H](C)C(=O)NCC(=O)NCC(=O)N1CCC[C@H]1C(=O)N[C@@H](CO)C(=O)N[C@@H](CO)C(=O)NCC(=O)N[C@@H](CCCCN)C(=O)N1CCC[C@H]1C(=O)N1CCC[C@H]1C(=O)N1CCC[C@H]1C(=O)N[C@@H](CCCCN)C(N)=O [Ab P027] (H-HGEGTFTSDLSKLLEKRAVHEFIEWLIAGGPSSGKPPPK-NH2; N-terminus assumed)

EC50 [1]: 390 pM
EC50 [2]: > 10000 pM
Compound: CC[C@H](C)[C@H](NC(=O)[C@H](CC(C)C)NC(=O)[C@H](Cc1c[nH]c2ccccc12)NC(=O)[C@H](CCC(=O)O)NC(=O)[C@@H](NC(=O)[C@H](Cc1ccccc1)NC(=O)[C@H](CCC(=O)O)NC(=O)[C@H](Cc1c[nH]cn1)NC(=O)[C@H](CCC(N)=O)NC(=O)[C@H](C)NC(=O)[C@H](CCCNC(=N)N)NC(=O)[C@H](CCCCN)NC(=O)[C@H](CCC(=O)O)NC(=O)[C@H](CC(C)C)NC(=O)[C@H](CC(C)C)NC(=O)[C@H](CCCCN)NC(=O)[C@H](CO)NC(=O)[C@H](CC(C)C)NC(=O)[C@H](CC(=O)O)NC(=O)[C@H](CO)NC(=O)[C@@H](NC(=O)[C@H](Cc1ccccc1)NC(=O)[C@@H](NC(=O)CNC(=O)[C@H](CCC(=O)O)NC(=O)CNC(=O)[C@@H](N)Cc1c[nH]cn1)[C@@H](C)O)[C@@H](C)O)[C@@H](C)CC)C(=O)N[C@@H](C)C(=O)NCC(=O)NCC(=O)N1CCC[C@H]1C(=O)N[C@@H](CO)C(=O)N[C@@H](CO)C(=O)NCC(=O)N[C@@H](CCCCN)C(=O)N1CCC[C@H]1C(=O)N1CCC[C@H]1C(=O)N1CCC[C@H]1C(=O)N[C@@H](CCCCN)C(N)=O [Ab P028] (H-HGEGTFTSDLSKLLEKRAQHEFIEWLIAGGPSSGKPPPK-NH2; N-terminus assumed)

koff human KLB [3]: 0.00011 s⁻¹
Compound: Ab0234: IgG4 PE; 16H7 VL (N93S); 16H7 VH

koff human KLB [3]: 0.00157 s⁻¹
Compound: Ab0295: IgG4 PE; 16H7 VL (N25S, D49Y); 16H7 VH (M34V, I83T, D109E)

koff human KLB [3]: 0.00137 s⁻¹
Compound: Ab0296: IgG4 PE; 16H7 VL (N25S, D50E); 16H7 VH (M34V, I83T, D109E)

koff human KLB [3]: 0.00156 s⁻¹
Compound: Ab0297: IgG4 PE; 16H7 VL (D49Y, D50E); 16H7 VH (M34V, I83T, D109E)

koff human KLB [3]: invalid fit
Compound: Ab0300: IgG4 PE; 16H7 VL (D49Y, D91T); 16H7 VH (M34V, I83T, D109E)

koff human KLB [3]: invalid fit
Compound: Ab0302: IgG4 PE; 16H7 VL (D50E, D91T); 16H7 VH (M34V, I83T, D109E)

koff human KLB [3]: 0.000288 s⁻¹
Compound: Ab0306: IgG4 PE; 16H7 VL (N25S, N93E); 16H7 VH (M34V, I83T, D109E)

koff human KLB [3]: 0.00118 s⁻¹
Compound: Ab0307: IgG4 PE; 16H7 VL (D49Y, N93E); 16H7 VH (M34V, I83T, D109E)

koff human KLB [3]: 0.00103 s⁻¹
Compound: Ab0309: IgG4 PE; 16H7 VL (D50E, N93E); 16H7 VH (M34V, I83T, D109E)

koff human KLB [3]: no binding
Compound: Ab0386: IgG4 PE; 16H7 VL (D95S, W90F); 16H7 VH (M34V, F54W, I83T, D109E)

Compound: dulaglutide [SAR10]
body weight (in words) ([4]; DIO NASH cynomolgus monkeys): Significant reductions in body weight
food intake ([4]; DIO NASH cynomolgus monkeys): Reduction of food intake
fasting glucose and fed glucose levels (12:30 and 18:30) [4, 5]: No significant change
ivGTT glucose AUC [4, 5]: significantly decreased
ivGTT plasma insulin AUC [4, 5]: significant increase
blood glucose levels, plasma profile [4, 6]: appreciable decreases
insulin, plasma profile [4, 6]: decreased
HDL levels, plasma profile ([4]; day +76 versus day −27): slightly increased
T-ketones levels, plasma profile ([4]; day +76 versus day −27): quite stable
TC and LDL levels, plasma profile ([4]; day +76 versus day −27): decreased
TG values, plasma profile ([4]; day +76 versus day −27): quite stable
liver fat fraction change (MRI) ([4]; measured on days +81/+82/+83/+84, DIO NASH cynomolgus monkeys): −25.2%
NASH steatosis score ([4]; more monkeys improved compared to vehicle treated group): improved steatosis score
